Data set [1] concerns Arabidopsis thaliana K33-1-3 and K33-2-4. Put plainly: Growth test in BS-containing medium, Arabidopsis transformed with Kasalath-derived CYP72A33. The format is in vivo. As to conditions: day 10 from onset of cultivation, compared to NT. From the text:
(§1) In this Example, Agrobacterium as prepared in Example 4 was used to introduce HptII::35Spro::Kasalath CYP72A31::Tnos vector plasmid (pCAMBIA1390-KasCYP72A31), HptII::35Spro::Kasalath CYP72A32::Tnos vector plasmid (pCAMBIA1390-KasCYP72A32), or HptII::35Spro::Kasalath CYP72A33::Tnos vector plasmid (pCAMBIA1390-KasCYP72A33) into Arabidopsis thaliana (ecotype: Col-0) by using a floral-dip method. The floral-dip method followed a standard method. […] K31-4-2 and K31-6-5 were selected as fixed lines derived from pCAMBIA1390-KasCYP72A31; K32-1-1, K32-3-1, and K32-5-1 were selected as fixed lines derived from pCAMBIA1390-KasCYP72A32; and K33-1-3 and K33-2-4 were selected as fixed lines derived from pCAMBIA1390-KasCYP72A33. Their seeds were seeded in a medium containing each concentration of BS, and cultivated for 10 days. FIGS. 16A and 16B illustrate the results.
Next, 15 seeds for each of non-transformed Arabidopsis thaliana (NT which is denoted by “Col-0” in FIGS. 19A-19C) and transformed plant bodies (K33-1-3 which is denoted by “K33oe-1-3” in FIGS. 19A-19C and K33-2-4 which is denoted by “K33oe-2-4” in FIGS. 19A-19C) were cultivated on a medium containing each concentration of BS. […]

The subject of data set [2] is Arabidopsis thaliana (K31-4-2) transformed with a Kasalath-derived CYP72A31 gene. Put plainly: Drug sensitivity test on drug-containing MS medium, Arabidopsis thaliana transformed with Kasalath-derived CYP72A31 gene. It counts as in vivo. As to conditions: for Ratio of sensitivity: K31-4-2 / NT. How it is done:
A bag of mixed salts for Murashige-Skoog (MS) medium (manufactured by Wako Pure Chemical Industries, Ltd.) 20 g of sucrose, 3 mg of thiamin hydrochloride, 5 mg of nicotinic acid, and 0.5 mg of pyridoxine hydrochloride were dissolved in distilled water, and filled up to 1 L with distilled water. After pH adjustment to 5.8 to 6.3 with 1 M KOH, 3 g of Gelrite was added to the solution, and dissolved using a microwave. After that, the mixture was autoclaved to prepare a sterile MS medium. A test drug was added to this sterile MS medium so as to make a final concentration of 1.3, 4.1, 12, 37, 110, or 330 nM. Arabidopsis thaliana from a sterilized seed was seeded in the drug-containing MS medium, and cultivated at 22° C. for 12 to 14 days in a continuous light period.
Note that the drugs used in this Example were bispyribac-sodium, pyrithiobac-sodium, pyriminobac, bensulfuron-methyl, penoxsulam, pyrazosulfuron-ethyl, amidosulfuron, imazosulfuron, nicosulfuron, and propyrisulfuron.

The subject of data set [3] is CYP72A31-overexpressing rice (K31-4-6-2). Put plainly: Drug sensitivity test on gellan gum medium, CYP72A31-overexpressing rice. The note with it: for CK ratio (%): plant height compared with drug-free medium. It counts as in vivo, Oryza sativa. The protocol: Next, 1.6 g of Hoagland's mix (Sigma-Aldrich Corporation) and 3 g of Gelrite (Wako Pure Chemical Industries, Ltd.) were suspended in 1 L of distilled water. Then, the mixture was dissolved and heated in a microwave. After that, the mixture was cooled to 50 to 60 degree C., and BS was added at a final concentration of 1 μM. This mixture was dispensed into 30-mL tubular bottles at 15 mL to prepare a gellan gum medium. Next, CSSL rice paddies were soaked in 0.5% sodium hypochlorite for about 20 minutes, and were then washed well with water. These paddies were soaked in distilled water, and kept at 27 degree C. for 3 to 5 days for germination. Germinating seeds were softly planted in sprout-side up on the gellan gum medium. These samples, together with a beaker filled with distilled water, were placed in a transparent case, which was then covered with a clear-plastic wrap. These samples were grown at 27 degree C. under fluorescent light illumination (14 hours of a light period and 10 hours of a dark period) for 7 to 9 days.
According to the method of Example 1, a gellan gum medium containing a test drug at a concentration of 0.01, 0.1, 1, or 10 μM was prepared. Rice seeds were sterilized, germinated, seeded in the medium, and cultivated.

Data set [4] relates to Arabidopsis thaliana K31-4-2 and K31-6-5. Put plainly: Growth test in BS-containing medium, Arabidopsis transformed with Kasalath-derived CYP72A31. The format is in vivo. The note with it: day 10 from onset of cultivation, compared to NT.
Source text: as §1
Next, 15 seeds for each of non-transformed Arabidopsis thaliana (NT, which is denoted by “Col-0” in FIGS. 17A-17C) and transformed plant bodies (K31-4-2 which is denoted by “K31oe-4-2” in FIGS. 17A-17C and K31-6-5 which is denoted by “K31oe-6-5” in FIGS. 17A-17C) were cultivated on a medium containing each concentration of BS. […]

Data set [5] deals with Nipponbare and Kasalath calluses with GFP overexpression construct. Put plainly: Callus growth test on BS-containing medium, GFP overexpression construct. The format is cell-based, Oryza sativa. The note with it: medium containing 0.25, 0.5, or 0.75 μM BS. An excerpt: According to Example 5, an HptII::35Spro::Kasalath CYP72A31::Tnos vector plasmid (pCAMBIA1390-KasCYP72A31, a kasCYP72A31 overexpression construct) or, as a control, an HptII::35Spro::sGFP::Tnos vector plasmid (pCAMBIA1390-sGFP, an sGFP overexpression construct) was introduced into a rice variety (cultivars: Nipponbare and Kasalath) by using an Agrobacterium method. Transformed calluses selected with 50 ppm hygromycin were isolated, and transplanted onto a bispyribac-sodium (BS)-containing medium to examine callus growth.

Turning to `COc1cc(OC)nc(Oc2cccc(Oc3nc(OC)cc(OC)n3)c2C(=O)O)n1` [BS, bispyribac sodium], the “BS sensitivity (germinated seeds, emerging of true leaves, fresh weight of above-ground part)” value in data set [1] is listed as “BS sensitivity equivalent to NT”; in data set [4], “significantly lower BS sensitivity compared to NT”. In addition, the “Resistance of transformed Arabidopsis thaliana to the drug” value in data set [2] (K31-4-2, Tables 2 and 3, FIGS. 20 to 24) is listed as “exhibited resistance”. Also, the “Rate of emerging of true leaf (%)” value was determined as 89% in data set [2] (K31-4-2, drug 1.3 nM, day 12 after seeding); 100% in data set [2] (K31-4-2, drug 1.3 nM, day 14 after seeding); 100% in data set [2] (K31-4-2, drug 4.1 nM, day 12 after seeding); 100% in data set [2] (K31-4-2, drug 4.1 nM, day 14 after seeding); 89% in data set [2] (K31-4-2, drug 12 nM, day 12 after seeding); 100% in data set [2] (K31-4-2, drug 12 nM, day 14 after seeding). Besides, the “Rate of emerging of true leaf (%)” value in data set [2] (K31-4-2, drug 37 nM, day 12 after seeding) is on record as 100%; in data set [2] (K31-4-2, drug 37 nM, day 14 after seeding) it was 100%; in data set [2] (K31-4-2, drug 110 nM, day 12 after seeding) it was 100%; in data set [2] (K31-4-2, drug 110 nM, day 14 after seeding) it was 100%; in data set [2] (K31-4-2, drug 330 nM, day 12 after seeding) it was 78%; in data set [2] (K31-4-2, drug 330 nM, day 14 after seeding), 80%. In addition, the Ratio of sensitivity in data set [2] (maximum drug concentration for 40% or more emerging of true leaves, day 12) is recorded as above 28; in data set [2] (maximum drug concentration for 80% or more emerging of true leaves, day 14), above 80; in data set [3] (maximum drug concentration for CK ratio of 40% or more, K31-4-6-2 / wild-type rice), above 100. In addition, the “Resistance of transformed rice to the drug” value in data set [3] (Table 4 and FIG. 25) is recorded as “exhibited resistance”. Besides, the “CK ratio (%)” value in data set [3] (K31-4-6-2, drug 0.01 μM) came to 106%; in data set [3] (K31-4-6-2, drug 0.1 μM), 97%; in data set [3] (K31-4-6-2, drug 1 μM), 103%; in data set [3] (K31-4-6-2, drug 10 μM) it was 74%. Further, the Callus growth result in data set [5] is on record as “inhibited their growth”.
